Reference: publication PMC3033200 (Angewandte Chemie (International ed. in English), 2010)
Entries after “also recorded” stand apart in the source; their conditions may differ.

What was measured:
ΔF508-CFTR [1] = assay: Ussing chamber chloride efflux; assay type: cell-based, human
CFBE-ΔF cells = assay: peptide uptake by fluorescence microscopy; conditions: BioPORTER delivery, fluorescence microscopy (Figure S1)
ΔF508-CFTR [2] = assay: Ussing chamber chloride efflux, residual ΔISC after CHX; assay type: cell-based, human
ΔF508-CFTR [3] = assay type: cell-based, human; conditions: surface biotinylation and Western blotting; p = 0.35, n = 14
CAL PDZ domain (CALP) = assay: NMR HSQC binding-site mapping on 15N-CALP; conditions: 15N-CALP HSQC

F*-SPTINSAIWR [F*-SCR, reference compound]
shift in chloride efflux (ΔISC) compared to untreated cells (ΔF508-CFTR [1]; CFBE-ΔF polarized monolayers, 37 °C, peptide/BioPORTER (500 μM), compared to untreated cells): ≤ 4% | peptide uptake (CFBE-ΔF cells): confirmed | residual ΔISC, % of baseline (ΔF508-CFTR [2]; 2 h CHX exposure, % of 0 h starting value, n = 9): 60%

AALKEETEEEVQDTRL [CFTR16]
increase in ΔISC (ΔF508-CFTR [1]; absence of CHX, relative to the scrambled control (Figure 5)): did not significantly increase

F*-ANSRWPTSII [F*-iCAL36]
peptide uptake (CFBE-ΔF cells): confirmed | residual ΔISC increase vs control monolayers (ΔF508-CFTR [2]; CHX 2 h, relative to control (F*-SCR) monolayers, p = 0.0005): 25% | increase in apical ΔF508-CFTR (significance, words) (ΔF508-CFTR [3]): not statistically significant

ANSRWPTSII [iCAL36]
effect on ΔF508-CFTR biogenesis/maturation (ΔF508-CFTR [1]; comparison of ΔISC increase in absence (26%) and presence (25%) of CHX): does not strongly affect biogenesis | mode of binding / binding site on CALP (CAL PDZ domain (CALP); 800 μM iCAL36, normalized chemical shift perturbation Δ ≥ 0.15): competitive inhibitor | additional contacts compared to CFTR8 (CAL PDZ domain (CALP); compared to the CFTR8 octamer, listed as iCAL36_10): extends beyond that of CFTR8; also recorded: makes additional contacts at the distal end of the peptide-binding groove
